In patent US9414589B2, “N-cyclylamides as nematicides” (SYNGENTA PARTICIPATIONS AG, priority 2012, dated 2016):

How the values were obtained:
[1] = tested on: Meloidogyne spp. (Root-knot nematode); experiment: Meloidogyne spp. contact activity, preventive, pouch test (cucumber); format: in vivo; conditions: cucumber seed in pouch, test solutions at 200 ppm, galls per root system after twelve days; cis vs trans isomers
Method: (§1) Meloidogyne spp. (Root-knot nematode) contact activity, preventive. Pouch test. Filter papers (9 cm×4.5 cm) with a small pocket were placed into plastic pouches (12 cm×6 cm). One cucumber cv. Toshka seed was placed in the centre of the filter paper pocket of all the pouches needed for a test. The cucumber seeds in the pouches were treated with test solutions at 200 ppm by pipetting the solution directly over the cucumber seed in the filter paper pocket in the pouch. Prior to application, the compound solution was prepared at twice the concentration required and the egg suspension is prepared with FORL nutrient solution with 3000 eggs/0.5 ml. After applying all the treatments, 3000 eggs (in 0.5 ml of FORL nutrient solution) were pipetted into the pouches. The pouches were incubated in a moist chamber for twelve days and watered regularly to maintain good filter paper moisture essential for the growing cucumber root system. After this period, the filter paper containing the germinated cucumber seedling was removed from the plastic pouch to assess the number of galls caused by Meloidogyne spp. per root system. […] Meloidogyne spp. (Root-knot nematode) contact activity, preventive, drench test. Cucumber cv. Toshka seeds were sown directly into pots filled with a sandy substrate. Six days later pots were each treated with 5 ml of a WP10 suspension of the test compound at 20 ppm. Hereafter pots were inoculated with 3000 eggs of M. incognita. The trial was harvested fourteen days after trial application and inoculation. Root galling was assessed according to Zeck's gall index (Zeck, 1971).

[2] = tested on: Meloidogyne spp. (Root-knot nematode); experiment: Meloidogyne spp. contact activity, preventive, drench test (cucumber in pots); format: in vivo, M. incognita; conditions: cis vs trans isomers
Method: as §1, with “Filter” for “Meloidogyne spp. (Root-knot nematode) contact activity, preventive. Pouch test. Filter”

| melting point [°C] | SMILES | Nem 1 (Meloidogyne spp. contact activity, preventive, pouch test; % galling) [1] [%] | Nem 2 (Meloidogyne spp. contact activity, preventive, drench test; % galling) [2] [%] |
| --- | --- | --- | --- |
| 126 to 128 | O=C(N[C@@H]1CCC1c1ccc(Cl)cc1Cl)c1ccccc1C(F)(F)F (some centres unmarked) [57.009] | 100 | – |
| 147 to 148 | O=C(N[C@H]1CCC1c1ccc(Cl)cc1Cl)c1ccccc1C(F)(F)F (stereo partly drawn) [57.009trans] | 68 | 48 |
| – | O=C(NC1CCC1c1ccc(Cl)cc1Cl)c1cccnc1C(F)(F)F (centres unmarked) [57.011] | 100 | 100 |
| – | O=C(NC1CCC1c1ccc(Cl)cc1Cl)c1ncccn1 (centres unmarked) [57.012] | 98 | 83 |
| – | O=C(NC1CCC1c1ccc(Cl)cc1F)c1c(F)cccc1F (centres unmarked) [57.014] | 93 | 100 |
